Test [1] has as its target T1, Nitric oxide synthase, inducible (Homo sapiens, UniProt P35228). The experiment in a line: Inhibition of iNOS assessed as conversion of L-[3H]arginine to L-[3H]-citrulline at 50 uM after 30 mins by scintillation counting.
Test [2] concerns the target Nitric oxide synthase 1 (Homo sapiens) (UniProt P29475). As to the kind of experiment: Inhibition of nNOS assessed as conversion of L-[3H]arginine to L-[3H]-citrulline at 50 uM after 30 mins by scintillation counting.
Test [3] concerns the target T1, Nitric oxide synthase, inducible. As to the kind of experiment: Inhibition of iNOS assessed as conversion of L-[3H]arginine to L-[3H]-citrulline after 30 mins by scintillation counting.

Chain of Nitric oxide synthase 1 (Homo sapiens) (P29475 whole entry): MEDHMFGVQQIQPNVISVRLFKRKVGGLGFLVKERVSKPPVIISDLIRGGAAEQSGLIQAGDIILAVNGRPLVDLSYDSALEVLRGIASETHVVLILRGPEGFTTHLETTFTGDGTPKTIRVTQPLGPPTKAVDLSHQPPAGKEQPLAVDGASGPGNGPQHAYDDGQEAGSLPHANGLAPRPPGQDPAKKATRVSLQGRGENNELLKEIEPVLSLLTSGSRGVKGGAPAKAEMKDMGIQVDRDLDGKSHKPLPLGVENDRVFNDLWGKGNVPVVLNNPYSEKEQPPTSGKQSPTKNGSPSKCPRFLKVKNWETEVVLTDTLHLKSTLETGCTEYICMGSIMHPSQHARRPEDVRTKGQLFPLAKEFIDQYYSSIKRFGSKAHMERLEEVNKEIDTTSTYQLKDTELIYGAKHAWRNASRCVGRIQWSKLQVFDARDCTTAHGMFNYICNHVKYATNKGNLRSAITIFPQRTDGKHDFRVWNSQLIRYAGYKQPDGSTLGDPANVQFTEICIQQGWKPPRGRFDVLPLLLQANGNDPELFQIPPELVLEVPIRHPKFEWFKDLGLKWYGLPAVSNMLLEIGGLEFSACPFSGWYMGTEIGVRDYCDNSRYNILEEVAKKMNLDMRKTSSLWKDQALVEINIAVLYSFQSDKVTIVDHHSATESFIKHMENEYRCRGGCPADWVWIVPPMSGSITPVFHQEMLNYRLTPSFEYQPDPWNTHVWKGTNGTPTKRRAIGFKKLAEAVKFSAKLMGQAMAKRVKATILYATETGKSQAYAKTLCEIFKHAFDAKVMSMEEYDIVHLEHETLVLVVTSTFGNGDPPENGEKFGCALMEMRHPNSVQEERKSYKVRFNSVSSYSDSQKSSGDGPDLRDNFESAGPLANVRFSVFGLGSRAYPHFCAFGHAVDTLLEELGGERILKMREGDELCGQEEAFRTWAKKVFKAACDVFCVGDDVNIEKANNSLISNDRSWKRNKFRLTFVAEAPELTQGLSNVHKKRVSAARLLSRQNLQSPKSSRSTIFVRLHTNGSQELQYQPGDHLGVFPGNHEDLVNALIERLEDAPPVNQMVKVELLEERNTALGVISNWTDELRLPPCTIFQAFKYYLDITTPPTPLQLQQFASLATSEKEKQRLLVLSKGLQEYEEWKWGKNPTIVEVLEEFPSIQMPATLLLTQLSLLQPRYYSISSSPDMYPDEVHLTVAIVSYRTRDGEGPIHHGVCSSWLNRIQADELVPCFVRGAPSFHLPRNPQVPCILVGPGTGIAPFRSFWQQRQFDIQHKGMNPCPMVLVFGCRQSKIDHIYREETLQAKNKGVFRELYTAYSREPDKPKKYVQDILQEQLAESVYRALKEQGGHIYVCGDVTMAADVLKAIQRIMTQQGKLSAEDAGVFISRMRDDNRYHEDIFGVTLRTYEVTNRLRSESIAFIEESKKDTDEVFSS
T1 sequence (P35228 whole entry): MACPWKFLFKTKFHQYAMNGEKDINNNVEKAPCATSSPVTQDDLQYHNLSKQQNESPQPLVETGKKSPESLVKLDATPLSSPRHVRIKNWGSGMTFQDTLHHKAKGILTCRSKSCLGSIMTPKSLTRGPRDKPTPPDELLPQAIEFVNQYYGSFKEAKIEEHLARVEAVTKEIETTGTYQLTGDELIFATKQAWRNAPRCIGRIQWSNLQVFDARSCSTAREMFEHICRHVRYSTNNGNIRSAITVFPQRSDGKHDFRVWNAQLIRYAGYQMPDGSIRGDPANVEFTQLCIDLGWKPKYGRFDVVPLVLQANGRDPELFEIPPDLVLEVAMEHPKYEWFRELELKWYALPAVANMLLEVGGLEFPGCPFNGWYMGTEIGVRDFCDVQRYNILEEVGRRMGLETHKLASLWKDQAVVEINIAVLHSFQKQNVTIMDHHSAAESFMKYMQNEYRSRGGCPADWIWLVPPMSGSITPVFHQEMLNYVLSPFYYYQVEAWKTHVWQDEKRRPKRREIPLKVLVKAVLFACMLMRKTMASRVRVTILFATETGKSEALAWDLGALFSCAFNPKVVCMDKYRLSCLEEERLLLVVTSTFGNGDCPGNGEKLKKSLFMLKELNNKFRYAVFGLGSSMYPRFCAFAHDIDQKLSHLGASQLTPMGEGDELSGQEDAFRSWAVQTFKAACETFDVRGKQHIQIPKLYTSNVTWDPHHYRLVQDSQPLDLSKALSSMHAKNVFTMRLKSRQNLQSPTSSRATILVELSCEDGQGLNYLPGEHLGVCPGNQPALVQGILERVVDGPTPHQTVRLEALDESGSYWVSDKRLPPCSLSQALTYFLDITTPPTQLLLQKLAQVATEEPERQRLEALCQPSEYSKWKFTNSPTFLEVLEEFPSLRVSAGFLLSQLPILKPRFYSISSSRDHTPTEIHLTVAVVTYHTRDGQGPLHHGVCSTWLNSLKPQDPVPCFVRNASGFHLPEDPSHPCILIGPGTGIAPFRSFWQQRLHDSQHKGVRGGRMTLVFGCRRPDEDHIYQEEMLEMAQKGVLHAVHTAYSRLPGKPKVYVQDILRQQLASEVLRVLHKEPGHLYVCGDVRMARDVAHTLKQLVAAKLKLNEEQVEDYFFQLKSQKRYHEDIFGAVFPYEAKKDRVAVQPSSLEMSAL

Take `CC(=O)N1N=C(c2cc(Cl)ccc2N)SC1(C)C`: the inhibition was 72.8% in test [1] and 22.5% in test [2].

Regarding `COc1ccc(N)c(C2=NN(C(=O)C3CCCC3)C(C)(C)S2)c1`, the inhibition turned out to be 65% in test [1] and 17.4% in test [2].

`COc1ccc(N)c(C2=NN(C(=O)C3CC3)C(C)(C)S2)c1`: the IC50 in test [3] came to 41 µM. The inhibition was 90% in test [1] and 9.95% in test [2].

Turning to `CC1(C)SC(c2ccccc2N)=NN1C(=O)C1CCC1`, the values for the inhibition in test [1] and in test [2] were 46.9% and 2.98%, respectively.

On to `CC1(C)SC(c2cc(Cl)ccc2N)=NN1C(=O)C1CCCCC1`, for which the inhibition in test [1] amounted to 7.61%; in test [2], 23.1%.

For `CCC(=O)N1N=C(c2cc(Cl)ccc2N)SC1(C)C`, the values for the inhibition in test [1] and in test [2] were 1.07% and 18.3%, respectively.

`CCCC(=O)N1N=C(c2cc(OC)ccc2N)SC1(C)C`: the IC50 in test [3] stood at 29.6 µM. The inhibition worked out at 91.1% in test [1] and 9.58% in test [2].

Regarding `COc1ccc(N)c(C2=NN(C(=O)c3ccccc3)C(C)(C)S2)c1`, the values for the inhibition in test [1] and in test [2] were 0% and 17.2%, respectively.

Take `COc1ccc(N)c(C2=NN(C(=O)C3CCCCC3)C(C)(C)S2)c1`: in test [3], the IC50 came to 21.9 µM. Besides, the results for the inhibition in test [1] and in test [2] were 100% and 11.3%, respectively.

As for `COc1ccc(N)c(C2=NN(C(=O)C3CCC3)C(C)(C)S2)c1`, the inhibition is 57.8% in test [1] and 13.7% in test [2].

Regarding `CCC(=O)N1N=C(c2cc(OC)ccc2N)SC1(C)C`, the inhibition came to 73% in test [1] and 8.85% in test [2].

In the case of `CC1(C)SC(c2cc(Cl)ccc2N)=NN1C(=O)C1CCC1`, the inhibition in test [1] was -4.65%; in test [2], 4.56%.

`CCC(=O)N1N=C(c2ccccc2N)SC1(C)C`: the results for the inhibition in test [1] and in test [2] were 19.2% and 24.2%, respectively.

As for `CC1(C)SC(c2cc(Cl)ccc2N)=NN1C(=O)C1CC1`, the values for the inhibition in test [1] and in test [2] were 23.2% and 21.9%, respectively.

Consider `CC1(C)SC(c2ccccc2N)=NN1C(=O)C1CCCCC1`, for which the inhibition was 28% in test [1] and 6.8% in test [2].

As for `CC1(C)SC(c2ccccc2N)=NN1C(=O)C1CC1`, the IC50 in test [3] came out at 34 µM. Moreover, the inhibition came to 93% in test [1] and 7.32% in test [2].

Turning to `CCCCC(=O)N1N=C(c2cc(Cl)ccc2N)SC1(C)C`, the values for the inhibition in test [1] and in test [2] were 12.6% and 38%, respectively.

On to `CCCC(=O)N1N=C(c2ccccc2N)SC1(C)C`, for which the inhibition in test [1] amounted to 35.2%; in test [2], 17.5%.

Take `CCCCC(=O)N1N=C(c2ccccc2N)SC1(C)C`: the inhibition in test [1] was found to be 39%; in test [2], 38%.

In the case of `CC(=O)N1N=C(c2ccccc2N)SC1(C)C`, the inhibition in test [1] is 22.9%; in test [2] it was 13.3%.

Turning to `CC1(C)SC(c2cc(Cl)ccc2N)=NN1C(=O)c1ccccc1`, the inhibition in test [1] was 20.8%; in test [2], 23.6%.

Take `CC1(C)SC(c2ccccc2N)=NN1C(=O)C1CCCC1`: the inhibition in test [1] was determined as 42.1%; in test [2] it was 9.34%.

For the compound `COc1ccc(N)c(C2=NN(C(C)=O)C(C)(C)S2)c1`, the values for the inhibition in test [1] and in test [2] were 77.1% and 43.3%, respectively.

Regarding `CC1(C)SC(c2ccccc2N)=NN1C(=O)c1ccccc1`, the inhibition in test [1] worked out at 39.8%; in test [2] it was 42.4%.

In the case of `CCCC(=O)N1N=C(c2cc(Cl)ccc2N)SC1(C)C`, the inhibition was 66.2% in test [1] and 27.7% in test [2].

As for `CC1(C)SC(c2cc(Cl)ccc2N)=NN1C(=O)C1CCCC1`, the inhibition worked out at 21.3% in test [1] and 8.37% in test [2].

Turning to `CCCCC(=O)N1N=C(c2cc(OC)ccc2N)SC1(C)C`, the inhibition in test [1] is 101%; in test [2] it was 14.6%.

The record behind these values is ChEMBL document CHEMBL1949563, “1,3,4-Thiadiazole derivatives as selective inhibitors of iNOS versus nNOS: Synthesis and structure-activity dependence” (Eur J Med Chem, 2012).
